Article PMC5596366, “Cytotoxicity and genotoxicity of stilbene derivatives in CHO-K1 and HepG2 cell lines” (Genetics and Molecular Biology, 2017)
Entries after “also recorded” stand apart in the source; their conditions may differ.

Tests used:
[1] = test system: colon and intestinal tumors; design: method as in Schneider et al., 2001; conditions: Min mice; ref Schneider et al., 2001; cited from earlier work
[2] = Cell viability assay (XTT), 24 h treatment; type: cell-based
Experimental: (§1) CHO-K1 and HepG2 cells were obtained from the Cell Bank of Rio de Janeiro (BCRJ code 0069 and 0103, respectively) and cultured in complete medium containing DMEM+F10 nutrient mixture (1:1, v/v), supplemented with fetal bovine serum (10%, v/v) and penicillin/streptomycin stabilized solution (10 mL/L). Cell cultures were incubated at 37 °C with atmosphere saturated with 5% of CO2. All experiments were conducted between the 3rd and the 8th passages and three experimental repetitions were performed.
(§2) Doxorubicin (DOX) was dissolved in ultrapure sterile water in a stock solution of 900 μM. All reagents were dissolved prior to use and protected from light. For all experiments, cells were submitted to 24 h treatment with different concentrations of the tested substance and DOX was used as positive control in CHO-K1 cells. Benzo(a)pyrene [B(a)P] at 25 μM was used as positive control in HepG2 cells.
To determine cell viability, 10^4 cells/well were seeded on a 96-well plate. […] The plates were washed twice in phosphate buffer saline (PBS 1X) and incubated for 4 h at 37 °C with DMEM without phenol red and supplemented with the reagents of the Cell Proliferation Kit (XTT) as recommended by the manufacturer. Total absorbance was measured at 492 and 690 nm (reference) using a microplate reader (ASYS, Eugendorf, Salzburg, Austria).

tubulin = test system: tubulin; design: method as in Schneider et al. (2003); conditions: ref Schneider et al. (2003); cited from earlier work
HT-29 xenografts = test system: HT-29 xenografts; design: method as in Paul et al. (2010); conditions: HT-29 xenografts model of colon cancer; ref Paul et al. (2010); cited from earlier work
[3] = test system: CHO-K1 and HepG2 cell lines; test: Clonogenic survival assay, statements not split by cell line; conditions: based on clonogenic survival assay
Experimental: as §1, §2
The clonogenic assay was performed according to [Franken et al. (2006)]. Briefly, 200 cells/well were plated in 6 well plates containing 3 mL of complete medium. After 4 h of incubation at 37 °C, the cells were treated with different concentrations of the testing stilbenes for 24 h, then each well was washed with PBS 1X and complete medium was added. […] The colonies were counted, and the cell survival fraction was calculated as percent colonies relative to the untreated control.

HepG2 cells [4] = test: Cytokinesis-block micronucleus assay (CBMN); type: cell-based; conditions: for nuclear bridges (NB): HepG2; for mean micronucleus (MN) frequency: 24 h
Experimental: as §1, §2
(§3) For the micronucleus test, 10^6 cells were seeded in […] culture flasks containing complete medium. Cell cultures were allowed to grow for 24 h, then treated with different concentrations of the stilbene derivatives. Simultaneously, cytochalasin B (6 μg/mL) was added to each cell culture to inhibit cytokinesis. After 24 h of incubation, cells were harvested with a hypotonic treatment (KCl 0.075 M) and fixed twice with methanol:acetic acid (3:1). Thereafter, the cell suspension was smeared on pre-cleaned microscope slides and air-dried. Staining was performed during 15 min with Giemsa at 5% in Sorensen Buffer (v/v). Microscope slides were washed in tap water and allowed to dry at room temperature overnight. The frequency of micronucleus (MN), frequency of binucleated cells with micronucleus (BCMN) and frequency of nucleoplasmic bridges (NB) were obtained by the analysis of 1000 binucleated cell/culture/treatment as previously described by [Fenech (2000)]. A total of 500 cells/culture/treatment were analyzed to determine the Nuclear Division Index (NDI) by scoring cells with 1, 2, 3 or 4 nuclei and using the formula: NDI= M1+2(M2)+3(M3)+4(M4)/N, where, M1–M4 stand for the number of cells with 1–4 nuclei and N is the total number of viable cells analyzed.

CHO-K1 cells [5] = test: Cytokinesis-block micronucleus assay (CBMN); type: cell-based; conditions: for mean micronucleus (MN) frequency: 24 h
Experimental: as §1, §2, §3

HepG2 cells [6] = test: Clonogenic survival assay; type: cell-based; conditions: for survival fraction: 24 h treatment
Experimental: as §1, §2
(§4) The clonogenic assay was performed according to [Franken et al. (2006)]. Briefly, 200 cells/well were plated in 6 well plates containing 3 mL of complete medium. After 4 h of incubation at 37 °C, the cells were treated with different concentrations of the testing stilbenes for 24 h, then each well was washed with PBS 1X and complete medium was added. The cells were allowed to grow for 7–14 days at 37 °C and 5% of CO2, when colonies were visible. The colonies formed were fixed with methanol/acetic acid/water (1:1:8 v/v/v) and stained with Giemsa 5% (v/v) in Sorensen phosphate buffer (pH 6.8). The colonies were counted, and the cell survival fraction was calculated as percent colonies relative to the untreated control.

CHO-K1 cells [7] = test: Clonogenic survival assay; type: cell-based; conditions: for survival fraction: 24 h treatment
Experimental: as §1, §2, §4

[8] = design: method as in Paul et al. (2010); conditions: in vivo; ref Paul et al. (2010); cited from earlier work
Caco-2 cells = test system: Caco-2 cells; design: method as in Schneider et al. (2003); conditions: ref Schneider et al. (2003); cited from earlier work
[9] = test system: colonic aberrant crypt foci (ACF); design: method as in Suh et al., 2007; conditions: ref Suh et al., 2007; cited from earlier work
Colo 205 xenograft = test system: Colo 205 xenograft; design: method as in Pan et al., 2008; conditions: Colo 205 xenograft model of colon cancer; ref Pan et al., 2008; cited from earlier work
[10] = Chinese hamster, CHO-K1, 7.8 μM (lowest concentration)
[11] = human, HepG2, 7.8 μM (lowest concentration)

Oc1ccc(/C=C/c2cc(O)cc(O)c2)cc1 [Resveratrol]
prevention of formation of colon and intestinal tumors [1]: 70%

COc1ccc(/C=C\c2cc(OC)cc(OC)c2)cc1 [cis-TMS, (Z)-1,3-dimethoxy-5-(4-methoxystyryl)benzene]
viability at 24 h, 7.8 µM [2, 10]: 60.7%
viability at 24 h, 7.8 µM [2, 11]: 49%
tubulin polymerization (tubulin): inhibited tubulin polymerization in a dose-dependent manner
effect on tumor (volume, weight) in vivo (HT-29 xenografts): not active in vivo
fold more cytotoxic than the amino and ester [3]: approximately 250 fold
fold more cytotoxic than trans-TMS [3]: 128 fold
nuclear bridges (NB) (HepG2 cells [4]): No significant induction
mean micronucleus (MN) frequency (HepG2 cells [4]; HepG2, 0.125 μM): 3.5 MN/100 cells
mean micronucleus (MN) frequency (HepG2 cells [4]; HepG2, 0.5 μM): 6.1 MN/100 cells
mean micronucleus (MN) frequency (CHO-K1 cells [5]; CHO-K1, 0.125 μM): 2.8 MN/100 cells
mean micronucleus (MN) frequency (CHO-K1 cells [5]; CHO-K1, 0.5 μM): 5.2 MN/100 cells
survival fraction (HepG2 cells [6]; HepG2, 0.078 μM): 41.3%
survival fraction (HepG2 cells [6]; HepG2, 0.156 μM): 54.3%
survival fraction (HepG2 cells [6]; HepG2, 0.3125 μM): 16.9%
survival fraction (HepG2 cells [6]; HepG2, 0.625 μM): 6.2%
cells killed (clonogenic assay) (HepG2 cells [6]; HepG2, at 2.5, 5 and 10 μM): 100%
survival fraction (CHO-K1 cells [7]; CHO-K1, 0.078 μM): 45.8%
survival fraction (CHO-K1 cells [7]; CHO-K1, 0.156 μM): 36.8%
survival fraction (CHO-K1 cells [7]; CHO-K1, 0.3125 μM): 13.9%
cells killed (clonogenic assay) (CHO-K1 cells [7]; CHO-K1, all concentrations tested (2.5 μM upwards)): 100%
bioavailability [8]: low bioavailability
cell cycle effect in Caco-2 cells (Caco-2 cells): arrest of the cell cycle progression at the G2/M transition phase

COc1cc(/C=C/c2ccc(O)cc2)cc(OC)c1 [pterostilbene]
formation of azoxymethane-induced colonic aberrant crypt foci (ACF) [9]: reduced the formation

COc1ccc(/C=C/c2cc(OC)cc(OC)c2)cc1 [trans-TMS, (E)-1,3-dimethoxy-5-(4-methoxystyryl)benzene]
viability at 24 h, 7.8 µM [2, 10]: 62.5%
viability at 24 h, 7.8 µM [2, 11]: 59.1%
effect on tumor (volume, weight) in vivo (HT-29 xenografts): significantly reduced tumor volume; also recorded: significantly decreased tumor volume and weight
tumor growth (Colo 205 xenograft): significantly reduced tumor growth
nuclear bridges (NB) (HepG2 cells [4]): No significant induction
micronucleus (MN) frequency, result in words (HepG2 cells [4]; HepG2, all tested concentrations): significantly increased
micronucleus (MN) frequency, result in words (CHO-K1 cells [5]; CHO-K1, all concentrations, compared to NC): no significant MN frequency
concentration from which colony formation is significantly reduced (HepG2 cells [6]; HepG2 (stated for both cell lines)): 5 µM
frequency of survival fraction, result in words (HepG2 cells [6]; HepG2, 2.5-20 μM): significant concentration-dependent reduction
concentration from which colony formation is significantly reduced (CHO-K1 cells [7]; CHO-K1 (stated for both cell lines)): 5 µM
frequency of survival fraction, result in words (CHO-K1 cells [7]; CHO-K1, 2.5-20 μM): significant concentration-dependent reduction
serum levels [8]: much higher serum levels than the cis-TMS
fold less effective in inhibiting the growth of Caco-2 cells than the cis isomer (Caco-2 cells): 100 fold
